Measurements: patent US20230233569A1 (Revolution Medicines, Inc., priority 2020, published 2023)
Where two headings read alike, the source gives them in different places.

Experiments:
Assay in all cases: Ras-Raf disruption / FRET / MOA assay (BRAF RBD)
Assay type in all cases: biochemical
[1] = molecular target: KRAS G12V (Homo sapiens, UniProt P01116+P62937, G12V); conditions: with Cyclophilin A
How it was run: (§1)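 Compound-induced Ras–Cyclophilin A ternary complex disrupting BRAF RBD binding, read as IC50 from reduced TR-FRET ratio relative to DMSO. Final: Ras-GMPPNP 12.5 nM, BRAF RBD 50 nM, Cyclophilin A 25 μM, top compound 30 μM (3-fold, 10 points); 3 h at 25 °C, then 1.5 h with detection antibodies.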

[2] = molecular target: KRAS G13D (Homo sapiens, UniProt P01116+P62937, G13D); conditions: with Cyclophilin A
How it was run: as §1

[3] = molecular target: KRAS G13C (Homo sapiens, UniProt P01116+P62937, G13C); conditions: with Cyclophilin A
How it was run: as §1

[4] = molecular target: KRAS WT (Homo sapiens, UniProt P01116+P62937); conditions: with Cyclophilin A
How it was run: as §1

[5] = molecular target: KRAS G12S (Homo sapiens, UniProt P01116+P62937, G12S); conditions: with Cyclophilin A
How it was run: as §1

[6] = molecular target: NRAS G12C (Homo sapiens, UniProt P01111+P62937, G12C)
How it was run: as §1

[7] = molecular target: KRAS G12D (Homo sapiens, UniProt P01116+P62937, G12D); conditions: with Cyclophilin A
How it was run: as §1

[8] = molecular target: NRAS Q61K (Homo sapiens, UniProt P01111+P62937, Q61K)
How it was run: as §1

[9] = molecular target: NRAS WT (Homo sapiens, UniProt P01111+P62937)
How it was run: as §1

[10] = molecular target: KRAS Q61H (Homo sapiens, UniProt P01116+P62937, Q61H)
How it was run: as §1

[11] = molecular target: NRAS Q61R (Homo sapiens, UniProt P01111+P62937, Q61R)
How it was run: as §1

[12] = molecular target: KRAS G12C (Homo sapiens, UniProt P01116+P62937, G12C); conditions: with Cyclophilin A
How it was run: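 TR-FRET read-out after 1.5 h with anti-His Eu-W1024 (10 nM) and anti-GST APC (50 nM), following 3 h at 25 °C of compound (top 30 μM, 3-fold, 10 points) with 25 μM Cyclophilin A, 12.5 nM GMPPNP-loaded K-Ras G12C and 50 nM BRAF RBD; IC50 reported.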

[13] = Ras-Raf disruption, read-out: KRAS G12V FRET data IC50
[14] = Ras-Raf disruption, read-out: KRAS G13D FRET data IC50
[15] = Ras-Raf disruption, read-out: KRAS G13C FRET data IC50
[16] = Ras-Raf disruption, read-out: KRAS WT FRET data IC50
[17] = Ras-Raf disruption, read-out: KRAS G12S FRET data IC50
[18] = NRAS G12C, read-out: NRAS G12C FRET data IC50
[19] = Ras-Raf disruption, read-out: KRAS G12D FRET data IC50
[20] = NRAS Q61K, read-out: NRAS Q61K FRET data IC50
[21] = NRAS WT, read-out: NRAS WT FRET data IC50
[22] = KRAS Q61H, read-out: KRAS Q61H FRET data IC50
[23] = NRAS Q61R, read-out: NRAS Q61R FRET data IC50
[24] = Ras-Raf disruption, read-out: KRAS G12C FRET data IC50
[25] = KRAS G12V FRET data IC50, Ras-Raf disruption
[26] = KRAS G13D FRET data IC50, Ras-Raf disruption
[27] = KRAS G13C FRET data IC50, Ras-Raf disruption
[28] = KRAS WT FRET data IC50, Ras-Raf disruption
[29] = KRAS G12S FRET data IC50, Ras-Raf disruption
[30] = NRAS G12C FRET data IC50, NRAS G12C
[31] = KRAS G12D FRET data IC50, Ras-Raf disruption
[32] = KRAS G12C FRET data IC50, Ras-Raf disruption

Chain of KRAS G12D (P01116 1-169 isoform P01116-2 G12D limits assumed): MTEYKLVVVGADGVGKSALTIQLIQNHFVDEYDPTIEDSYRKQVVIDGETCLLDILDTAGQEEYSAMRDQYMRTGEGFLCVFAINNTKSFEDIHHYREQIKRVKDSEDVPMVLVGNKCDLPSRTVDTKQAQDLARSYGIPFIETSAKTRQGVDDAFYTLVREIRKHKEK
Chain of KRAS G12D (P62937 whole entry): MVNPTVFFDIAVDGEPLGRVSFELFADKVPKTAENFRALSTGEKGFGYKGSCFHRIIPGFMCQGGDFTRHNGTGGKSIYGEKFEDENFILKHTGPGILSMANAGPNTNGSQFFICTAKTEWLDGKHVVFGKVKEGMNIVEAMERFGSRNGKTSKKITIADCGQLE
Chain of KRAS G12S (P01116 1-169 isoform P01116-2 G12S limits assumed): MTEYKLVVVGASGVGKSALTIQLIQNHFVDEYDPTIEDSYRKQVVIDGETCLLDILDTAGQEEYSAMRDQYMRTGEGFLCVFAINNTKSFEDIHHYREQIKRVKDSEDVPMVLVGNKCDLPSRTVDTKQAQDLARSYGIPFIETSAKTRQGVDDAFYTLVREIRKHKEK
Chain of KRAS G12S (P62937 whole entry): as the sequence (P62937 whole entry) above
Chain of KRAS G13D (P01116 1-169 isoform P01116-2 G13D limits assumed): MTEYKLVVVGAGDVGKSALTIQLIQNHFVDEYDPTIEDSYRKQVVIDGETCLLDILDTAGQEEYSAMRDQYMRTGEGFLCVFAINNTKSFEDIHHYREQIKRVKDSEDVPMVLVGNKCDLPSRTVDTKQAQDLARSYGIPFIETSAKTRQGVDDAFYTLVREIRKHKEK
Chain of KRAS G13D (P62937 whole entry): as the sequence (P62937 whole entry) above
Chain of KRAS G12C (P01116 1-169 isoform P01116-2 G12C limits assumed): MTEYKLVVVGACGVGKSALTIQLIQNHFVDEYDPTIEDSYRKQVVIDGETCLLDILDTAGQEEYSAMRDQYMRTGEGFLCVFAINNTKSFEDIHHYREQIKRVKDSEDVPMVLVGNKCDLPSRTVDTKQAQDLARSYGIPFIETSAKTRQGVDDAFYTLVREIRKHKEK
Chain of KRAS G12C (P62937 whole entry): as the sequence (P62937 whole entry) above
Chain of KRAS G13C (P01116 1-169 isoform P01116-2 G13C limits assumed): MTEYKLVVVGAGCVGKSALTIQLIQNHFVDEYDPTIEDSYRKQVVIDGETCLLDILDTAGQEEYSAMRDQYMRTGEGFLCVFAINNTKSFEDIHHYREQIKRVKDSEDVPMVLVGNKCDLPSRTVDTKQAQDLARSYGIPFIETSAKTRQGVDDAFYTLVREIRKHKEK
Chain of KRAS G13C (P62937 whole entry): as the sequence (P62937 whole entry) above
Chain of KRAS G12V (P01116 1-169 isoform P01116-2 G12V limits assumed): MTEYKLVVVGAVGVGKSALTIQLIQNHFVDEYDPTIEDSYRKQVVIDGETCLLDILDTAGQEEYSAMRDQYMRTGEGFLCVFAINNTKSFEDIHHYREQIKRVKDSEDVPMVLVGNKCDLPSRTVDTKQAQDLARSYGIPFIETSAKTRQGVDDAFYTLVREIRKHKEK
Chain of KRAS G12V (P62937 whole entry): as the sequence (P62937 whole entry) above
Chain of KRAS Q61H (P01116 1-169 isoform P01116-2 Q61H limits assumed): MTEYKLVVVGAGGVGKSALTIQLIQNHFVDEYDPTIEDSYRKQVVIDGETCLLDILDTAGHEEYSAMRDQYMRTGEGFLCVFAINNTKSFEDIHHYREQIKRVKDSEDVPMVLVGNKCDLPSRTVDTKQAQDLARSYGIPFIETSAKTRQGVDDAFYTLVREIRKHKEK
Chain of KRAS Q61H (P62937 whole entry): as the sequence (P62937 whole entry) above
Chain of NRAS WT (P01111 whole entry): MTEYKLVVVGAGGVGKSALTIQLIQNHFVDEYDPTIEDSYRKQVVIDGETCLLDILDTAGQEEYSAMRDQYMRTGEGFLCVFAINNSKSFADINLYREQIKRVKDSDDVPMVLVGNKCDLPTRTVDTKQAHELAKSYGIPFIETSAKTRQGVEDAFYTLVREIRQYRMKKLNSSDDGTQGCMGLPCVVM
Chain of NRAS WT (P62937 whole entry): as the sequence (P62937 whole entry) above
Chain of NRAS Q61R (P01111 whole entry Q61R): as the sequence (P01111 whole entry) above, with Q61R counted along it
Chain of NRAS Q61R (P62937 whole entry): as the sequence (P62937 whole entry) above
Chain of NRAS G12C (P01111 whole entry G12C): as the sequence (P01111 whole entry) above, with G12C counted along it
Chain of NRAS G12C (P62937 whole entry): as the sequence (P62937 whole entry) above
Chain of NRAS Q61K (P01111 whole entry Q61K): as the sequence (P01111 whole entry) above, with Q61K counted along it
Chain of NRAS Q61K (P62937 whole entry): as the sequence (P62937 whole entry) above
Chain of KRAS WT (P01116 1-169 isoform P01116-2 limits assumed): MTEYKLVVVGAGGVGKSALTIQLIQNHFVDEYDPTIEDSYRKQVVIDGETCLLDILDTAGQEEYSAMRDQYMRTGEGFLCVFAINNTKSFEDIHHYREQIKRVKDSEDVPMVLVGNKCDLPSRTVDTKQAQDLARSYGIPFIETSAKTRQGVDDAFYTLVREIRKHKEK
Chain of KRAS WT (P62937 whole entry): as the sequence (P62937 whole entry) above

## CCn1c(-c2cccnc2[C@H](C)OC)c2c3cc(ccc31)-c1csc(n1)C[C@H](NC(=O)[C@H](C(C)C)N(C)C(=O)N1CCN(C(=O)[C@H]3CN3)C[C@H]1C)C(=O)N1CCC[C@H](N1)C(=O)OCC(C)(C)C2 [Example 301]
[1]; [13]
  IC50: 0.1 to 1 µM
[2]; [14]
  IC50: 0.1 to 1 µM
[3]; [15]
  IC50: 0.01 to 0.1 µM
[4]; [16]
  IC50: 0.01 to 0.1 µM
[5]; [17]
  IC50: 0.01 to 0.1 µM
[6]; [18]
  IC50: 0.01 to 0.1 µM
[7]; [19]
  IC50: 0.1 to 1 µM
[8]; [20]
  IC50: 0.01 to 0.1 µM
[9]; [21]
  IC50: 0.01 to 0.1 µM
[10]; [22]
  IC50: 0.01 to 0.1 µM
[11]; [23]
  IC50: 0.01 to 0.1 µM
[12]; [24]
  IC50: 0.01 to 0.1 µM

## CCn1c(-c2cccnc2[C@H](C)OC)c2c3cc(ccc31)-c1csc(n1)C[C@H](NC(=O)[C@H](C(C)C)N(C)C(=O)N1CCN(C(=O)[C@@H]3CN3)C[C@H]1C)C(=O)N1CCC[C@H](N1)C(=O)OCC(C)(C)C2 [Example 302]
[1]; [13]
  IC50: 0.01 to 0.1 µM
[2]; [14]
  IC50: 0.1 to 1 µM
[3]; [15]
  IC50: 0.1 to 1 µM
[4]; [16]
  IC50: 0.01 to 0.1 µM
[5]; [17]
  IC50: 0.01 to 0.1 µM
[6]; [18]
  IC50: 0.01 to 0.1 µM
[7]; [19]
  IC50: 0.1 to 1 µM
[8]; [20]
  IC50: 0.01 to 0.1 µM
[9]; [21]
  IC50: 0.01 to 0.1 µM
[10]; [22]
  IC50: 0.01 to 0.1 µM
[11]; [23]
  IC50: 0.01 to 0.1 µM
[12]; [24]
  IC50: 0.01 to 0.1 µM

## CCn1c(-c2cccnc2[C@H](C)OC)c2c3cc(ccc31)-c1cc(O)cc(c1)C[C@H](NC(=O)[C@H](C(C)C)N1CC[C@]3(CCN(C(=O)[C@@H]4N[C@@H]4C4CC4)C3)C1=O)C(=O)N1CCC[C@H](N1)C(=O)OCC(C)(C)C2 [Example 305]
[1]; [13]
  IC50: 0.01 to 0.1 µM
[2]; [14]
  IC50: 0.1 to 1 µM
[3]; [15]
  IC50: 0.01 to 0.1 µM
[4]; [16]
  IC50: 0.01 to 0.1 µM
[5]; [17]
  IC50: 0.01 to 0.1 µM
[6]; [18]
  IC50: 0.01 to 0.1 µM
[7]; [19]
  IC50: < 0.01 µM
[8]; [20]
  IC50: 0.1 to 1 µM
[9]; [21]
  IC50: 0.01 to 0.1 µM
[10]; [22]
  IC50: 0.01 to 0.1 µM
[11]; [23]
  IC50: 0.1 to 1 µM
[12]; [24]
  IC50: 0.01 to 0.1 µM

## CCN1C[C@@H]1C(=O)N(C)CC(=O)N(C)[C@H](C(=O)N[C@H]1Cc2cc(O)cc(c2)-c2ccc3c(c2)c(c(-c2cccnc2[C@H](C)OC)n3CC)CC(C)(C)COC(=O)[C@@H]2CCCN(N2)C1=O)C1CCCC1 (stereo partly drawn) [Example 309]
[1]; [25]
  IC50: 0.01 to 0.1 µM
[2]; [26]
  IC50: 0.01 to 0.1 µM
[3]; [27]
  IC50: 0.01 to 0.1 µM
[4]; [28]
  IC50: 0.01 to 0.1 µM
[5]; [29]
  IC50: 0.01 to 0.1 µM
[6]; [30]
  IC50: < 0.01 µM
[7]; [31]
  IC50: 0.01 to 0.1 µM
[8]
  IC50: 0.1 to 1 µM
[9]
  IC50: 0.01 to 0.1 µM
[10]
  IC50: 0.01 to 0.1 µM
[11]
  IC50: 0.1 to 1 µM
[12]; [32]
  IC50: < 0.01 µM

## CCn1c(-c2cccnc2[C@H](C)OC)c2c3cc(ccc31)-c1cc(O)cc(c1)C[C@H](NC(=O)[C@@H](COC1CN(C(=O)[C@H]3CN3)C1)C(C)C)C(=O)N1CCC[C@H](N1)C(=O)OCC(C)(C)C2 [Example 312]
[1]; [13]
  IC50: 1 to 10 µM
[2]; [14]
  IC50: 1 to 10 µM
[3]; [15]
  IC50: 0.1 to 1 µM
[4]; [16]
  IC50: 0.1 to 1 µM
[5]; [17]
  IC50: 1 to 10 µM
[6]; [18]
  IC50: < 0.01 µM
[7]; [19]
  IC50: 1 to 10 µM
[8]; [20]
  IC50: 1 to 10 µM
[9]; [21]
  IC50: 0.1 to 1 µM
[10]; [22]
  IC50: 0.1 to 1 µM
[11]; [23]
  IC50: 1 to 10 µM
[12]; [24]
  IC50: < 0.01 µM

## CCn1c(-c2cccnc2[C@H](C)OC)c2c3cc(ccc31)-c1cc(O)cc(c1)C[C@H](NC(=O)[C@H](C1CCCC1)N(C)C(=O)CN(C)C(=O)[C@@H]1N[C@@H]1C1(F)CC1)C(=O)N1CCC[C@H](N1)C(=O)OCC(C)(C)C2 [Example 314]
[1]; [25]
  IC50: 0.01 to 0.1 µM
[2]; [26]
  IC50: 0.01 to 0.1 µM
[3]; [27]
  IC50: 0.01 to 0.1 µM
[4]; [28]
  IC50: 0.01 to 0.1 µM
[5]; [29]
  IC50: 0.01 to 0.1 µM
[6]; [30]
  IC50: 0.01 to 0.1 µM
[7]; [31]
  IC50: 0.1 to 1 µM
[8]
  IC50: 0.1 to 1 µM
[9]
  IC50: 0.01 to 0.1 µM
[10]
  IC50: 0.01 to 0.1 µM
[11]
  IC50: 0.1 to 1 µM
[12]; [32]
  IC50: 0.01 to 0.1 µM

## CCn1c(-c2cccnc2[C@H](C)OC)c2c3cc(ccc31)-c1cc(O)cc(c1)C[C@H](NC(=O)[C@H](C1CCCC1)N(C)C(=O)CN(C)C(=O)[C@H]1N[C@H]1C1(F)CC1)C(=O)N1CCC[C@H](N1)C(=O)OCC(C)(C)C2 [Example 315]
[1]; [25]
  IC50: 0.01 to 0.1 µM
[2]; [26]
  IC50: 0.01 to 0.1 µM
[3]; [27]
  IC50: 0.01 to 0.1 µM
[4]; [28]
  IC50: 0.01 to 0.1 µM
[5]; [29]
  IC50: 0.01 to 0.1 µM
[6]; [30]
  IC50: 0.01 to 0.1 µM
[7]; [31]
  IC50: 0.01 to 0.1 µM
[8]
  IC50: 0.01 to 0.1 µM
[9]
  IC50: < 0.01 µM
[10]
  IC50: 0.01 to 0.1 µM
[11]
  IC50: 0.1 to 1 µM
[12]; [32]
  IC50: 0.01 to 0.1 µM
